Measured values taken from patent US20230233569A1 (Revolution Medicines, Inc., priority 2020, published 2023).

Key:
[1] = tested on: P70S6K (Thr389) phosphorylation (mTORC1) in MDA-MB-468 cells; test: Cell based AlphaLISA assay, mTOR kinase cellular assay: inhibition of p-P70S6K (T389) in MDA-MB-468 cells; conditions: Homo sapiens, read-out: pIC50 for Inhibition of mTORC1 and mTORC2 Substarte Phosphorylation p-P70S6K-(T389) (converted)
Protocol: (§1) Cell Based AlphaLISA Assays for Determining IC50 For Inhibition of P-Akt (S473), P-4E-BP1 (T37/46), and P-P70S6K (T389) in MDA-MB-468 Cells
(§2) mTOR Kinase Cellular Assay
(§3) To measure functional activity of mTORC1 and mTORC2 in cells the phosphorylation of 4EBP1 (Thr37/46) and P70S6K (Thr389), and AKT1/2/3 (Ser473) was monitored using AlphaLisa SureFire Ultra Kits (Perkin Elmer). MDA-MB-468 cells (ATCC® HTB-132) were cultured in 96-well tissue culture plates and treated with compounds in the disclosure at concentrations varying from 0.017-1,000 nM for two to four hours at 37° C. Incubations were terminated by removal of the assay buffer and addition of lysis buffer provided with the assay kit. Samples were processed according to the manufacturer's instructions. The Alpha signal from the respective phosphoproteins was measured in duplicate using a microplate reader (Envision, Perkin-Elmer or Spectramax M5, Molecular Devices). Inhibitor concentration response curves were analyzed using normalized IC50 regression curve fitting with control based normalization.

[2] = tested on: 4EBP1 (Thr37/46) phosphorylation (mTORC1) in MDA-MB-468 cells; test: Cell based AlphaLISA assay, mTOR kinase cellular assay: inhibition of p-4E-BP1 (T37/46) in MDA-MB-468 cells; conditions: Homo sapiens, read-out: pIC50 for Inhibition of mTORC1 and mTORC2 Substarte Phosphorylation p-4E-BP1-(T37/46) (converted)
Protocol: as §1, §2, §3

[3] = tested on: AKT1/2/3 (Ser473) phosphorylation (mTORC2) in MDA-MB-468 cells; test: Cell based AlphaLISA assay, mTOR kinase cellular assay: inhibition of p-Akt (S473) in MDA-MB-468 cells; conditions: Homo sapiens, read-out: pIC50 for Inhibition of mTORC1 and mTORC2 Substarte Phosphorylation p-AKT1/2/3-(S473) (converted)
Protocol: as §1, §2, §3

AsPC-1 (K-Ras G12D) [4] = test: Potency assay: pERK; type: cell-based; conditions: Homo sapiens, ASPC1, read-out: pERK EC50
AsPC-1 (K-Ras G12D) [5] = test: CellTiter-Glo cell viability assay; type: cell-based; conditions: Homo sapiens, ASPC1, 120 h, read-out: AsPC-1 Cell Viability assay data IC50, K-Ras G12D, 5-day treatment
Summary of the method: (§4)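 Percent-of-DMSO luminescence values (CellTiter-Glo, day 5, plates equilibrated ~30 minutes at ambient temperature) were curve-fitted using a 4-parameter logistic equation; compounds had been added straight into wells containing the cells.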

NCI-H358 (K-Ras G12C) = test: CellTiter-Glo cell viability assay; type: cell-based; conditions: Homo sapiens, NCI-H358, 120 h, read-out: H358 Cell Viability assay data IC50, K-Ras G12C, 5-day treatment
Summary of the method: as §4

KRAS G12D = KRAS G12D (Homo sapiens, UniProt P01116+P62937, G12D); test: Ras-Raf disruption / FRET / MOA assay (BRAF RBD); type: biochemical; conditions: KRAS G12D FRET data IC50, Ras-Raf disruption, with Cyclophilin A
Chain of KRAS G12D (P01116 1-169 isoform P01116-2 G12D limits assumed): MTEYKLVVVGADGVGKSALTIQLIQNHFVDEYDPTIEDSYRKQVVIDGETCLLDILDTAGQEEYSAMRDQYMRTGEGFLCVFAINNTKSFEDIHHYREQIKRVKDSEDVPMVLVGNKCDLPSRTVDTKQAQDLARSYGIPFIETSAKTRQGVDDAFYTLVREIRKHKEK
Chain of KRAS G12D (P62937 whole entry): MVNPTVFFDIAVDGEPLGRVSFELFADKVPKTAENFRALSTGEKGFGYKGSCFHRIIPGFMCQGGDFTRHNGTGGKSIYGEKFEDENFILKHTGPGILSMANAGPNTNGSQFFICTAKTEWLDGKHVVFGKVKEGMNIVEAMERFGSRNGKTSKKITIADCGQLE
Summary of the method: (§5)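 Compound-induced Ras–Cyclophilin A ternary complex disrupting BRAF RBD binding, read as IC50 from reduced TR-FRET ratio relative to DMSO. Final: Ras-GMPPNP 12.5 nM, BRAF RBD 50 nM, Cyclophilin A 25 μM, top compound 30 μM (3-fold, 10 points); 3 h at 25 °C, then 1.5 h with detection antibodies.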

KRAS G12S = KRAS G12S (Homo sapiens, UniProt P01116+P62937, G12S); test: Ras-Raf disruption / FRET / MOA assay (BRAF RBD); type: biochemical; conditions: KRAS G12S FRET data IC50, Ras-Raf disruption, with Cyclophilin A
Chain of KRAS G12S (P01116 1-169 isoform P01116-2 G12S limits assumed): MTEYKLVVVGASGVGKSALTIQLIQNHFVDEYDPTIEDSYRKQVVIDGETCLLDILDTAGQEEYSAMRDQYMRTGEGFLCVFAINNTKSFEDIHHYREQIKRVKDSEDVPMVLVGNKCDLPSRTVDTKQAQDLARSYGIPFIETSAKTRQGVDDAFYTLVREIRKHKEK
Chain of KRAS G12S (P62937 whole entry): as the sequence (P62937 whole entry) above
Summary of the method: as §5

KRAS G12V = KRAS G12V (Homo sapiens, UniProt P01116+P62937, G12V); test: Ras-Raf disruption / FRET / MOA assay (BRAF RBD); type: biochemical; conditions: KRAS G12V FRET data IC50, Ras-Raf disruption, with Cyclophilin A
Chain of KRAS G12V (P01116 1-169 isoform P01116-2 G12V limits assumed): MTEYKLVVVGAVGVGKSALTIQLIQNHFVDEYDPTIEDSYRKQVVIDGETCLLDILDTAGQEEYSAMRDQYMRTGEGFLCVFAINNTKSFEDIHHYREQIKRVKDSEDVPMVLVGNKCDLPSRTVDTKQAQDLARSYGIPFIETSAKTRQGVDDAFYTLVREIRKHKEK
Chain of KRAS G12V (P62937 whole entry): as the sequence (P62937 whole entry) above
Summary of the method: as §5

KRAS G13C = KRAS G13C (Homo sapiens, UniProt P01116+P62937, G13C); test: Ras-Raf disruption / FRET / MOA assay (BRAF RBD); type: biochemical; conditions: KRAS G13C FRET data IC50, Ras-Raf disruption, with Cyclophilin A
Chain of KRAS G13C (P01116 1-169 isoform P01116-2 G13C limits assumed): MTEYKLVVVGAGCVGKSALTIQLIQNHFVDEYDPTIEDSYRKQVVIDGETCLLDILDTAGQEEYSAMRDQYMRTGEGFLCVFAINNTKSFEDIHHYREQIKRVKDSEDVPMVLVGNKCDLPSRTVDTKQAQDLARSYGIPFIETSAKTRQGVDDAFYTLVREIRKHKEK
Chain of KRAS G13C (P62937 whole entry): as the sequence (P62937 whole entry) above
Summary of the method: as §5

KRAS G13D = KRAS G13D (Homo sapiens, UniProt P01116+P62937, G13D); test: Ras-Raf disruption / FRET / MOA assay (BRAF RBD); type: biochemical; conditions: KRAS G13D FRET data IC50, Ras-Raf disruption, with Cyclophilin A
Chain of KRAS G13D (P01116 1-169 isoform P01116-2 G13D limits assumed): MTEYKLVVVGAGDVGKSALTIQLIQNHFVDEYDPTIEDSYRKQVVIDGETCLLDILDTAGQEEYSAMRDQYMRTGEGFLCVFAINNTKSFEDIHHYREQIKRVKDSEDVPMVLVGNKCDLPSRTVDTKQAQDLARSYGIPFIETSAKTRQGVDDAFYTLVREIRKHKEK
Chain of KRAS G13D (P62937 whole entry): as the sequence (P62937 whole entry) above
Summary of the method: as §5

KRAS Q61H = KRAS Q61H (Homo sapiens, UniProt P01116+P62937, Q61H); test: Ras-Raf disruption / FRET / MOA assay (BRAF RBD); type: biochemical
Chain of KRAS Q61H (P01116 1-169 isoform P01116-2 Q61H limits assumed): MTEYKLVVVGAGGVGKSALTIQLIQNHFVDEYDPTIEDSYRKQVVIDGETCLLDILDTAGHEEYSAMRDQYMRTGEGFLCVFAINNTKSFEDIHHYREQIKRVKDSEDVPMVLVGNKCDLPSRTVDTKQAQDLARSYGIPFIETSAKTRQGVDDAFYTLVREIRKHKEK
Chain of KRAS Q61H (P62937 whole entry): as the sequence (P62937 whole entry) above
Summary of the method: as §5

KRAS WT = KRAS WT (Homo sapiens, UniProt P01116+P62937); test: Ras-Raf disruption / FRET / MOA assay (BRAF RBD); type: biochemical; conditions: KRAS WT FRET data IC50, Ras-Raf disruption, with Cyclophilin A
Chain of KRAS WT (P01116 1-169 isoform P01116-2 limits assumed): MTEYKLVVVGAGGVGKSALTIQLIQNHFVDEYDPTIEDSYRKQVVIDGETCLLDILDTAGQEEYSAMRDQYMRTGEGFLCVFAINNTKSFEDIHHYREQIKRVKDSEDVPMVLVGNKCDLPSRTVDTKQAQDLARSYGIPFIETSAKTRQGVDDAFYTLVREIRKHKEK
Chain of KRAS WT (P62937 whole entry): as the sequence (P62937 whole entry) above
Summary of the method: as §5

NRAS G12C = NRAS G12C (Homo sapiens, UniProt P01111+P62937, G12C); test: Ras-Raf disruption / FRET / MOA assay (BRAF RBD); type: biochemical; conditions: NRAS G12C FRET data IC50, NRAS G12C
Chain of NRAS G12C (P01111 whole entry G12C): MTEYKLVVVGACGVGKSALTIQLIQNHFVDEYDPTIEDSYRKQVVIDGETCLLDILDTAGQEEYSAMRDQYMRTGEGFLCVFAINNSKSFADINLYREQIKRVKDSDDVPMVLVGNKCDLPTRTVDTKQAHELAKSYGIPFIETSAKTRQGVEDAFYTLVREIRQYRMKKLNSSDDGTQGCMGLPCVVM
Chain of NRAS G12C (P62937 whole entry): as the sequence (P62937 whole entry) above
Summary of the method: as §5

NRAS Q61K = NRAS Q61K (Homo sapiens, UniProt P01111+P62937, Q61K); test: Ras-Raf disruption / FRET / MOA assay (BRAF RBD); type: biochemical
Chain of NRAS Q61K (P01111 whole entry Q61K): as the sequence (P01111 whole entry G12C) above, with C12G, Q61K counted along it
Chain of NRAS Q61K (P62937 whole entry): as the sequence (P62937 whole entry) above
Summary of the method: as §5

NRAS Q61R = NRAS Q61R (Homo sapiens, UniProt P01111+P62937, Q61R); test: Ras-Raf disruption / FRET / MOA assay (BRAF RBD); type: biochemical
Chain of NRAS Q61R (P01111 whole entry Q61R): as the sequence (P01111 whole entry G12C) above, with C12G, Q61R counted along it
Chain of NRAS Q61R (P62937 whole entry): as the sequence (P62937 whole entry) above
Summary of the method: as §5

NRAS WT = NRAS WT (Homo sapiens, UniProt P01111+P62937); test: Ras-Raf disruption / FRET / MOA assay (BRAF RBD); type: biochemical
Chain of NRAS WT (P01111 whole entry): as the sequence (P01111 whole entry G12C) above, with C12G counted along it
Chain of NRAS WT (P62937 whole entry): as the sequence (P62937 whole entry) above
Summary of the method: as §5

KRAS G12C = KRAS G12C (Homo sapiens, UniProt P01116+P62937, G12C); test: Ras-Raf disruption / FRET / MOA assay (BRAF RBD); type: biochemical; conditions: KRAS G12C FRET data IC50, Ras-Raf disruption, with Cyclophilin A
Chain of KRAS G12C (P01116 1-169 isoform P01116-2 G12C limits assumed): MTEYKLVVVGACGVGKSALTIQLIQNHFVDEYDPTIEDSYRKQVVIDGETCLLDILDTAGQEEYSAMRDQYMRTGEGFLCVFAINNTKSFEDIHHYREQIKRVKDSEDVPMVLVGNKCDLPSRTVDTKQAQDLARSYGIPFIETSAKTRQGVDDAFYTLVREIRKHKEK
Chain of KRAS G12C (P62937 whole entry): as the sequence (P62937 whole entry) above
Summary of the method: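 TR-FRET read-out after 1.5 h with anti-His Eu-W1024 (10 nM) and anti-GST APC (50 nM), following 3 h at 25 °C of compound (top 30 μM, 3-fold, 10 points) with 25 μM Cyclophilin A, 12.5 nM GMPPNP-loaded K-Ras G12C and 50 nM BRAF RBD; IC50 reported.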

SMILES | IC50 [1] [nM] | IC50 [2] [nM] | IC50 [3] [nM] | EC50 (AsPC-1 (K-Ras G12D) [4]) [nM] | IC50 (AsPC-1 (K-Ras G12D) [5]) [nM] | IC50 (NCI-H358 (K-Ras G12C)) [nM] | IC50 (KRAS G12D) [nM] | IC50 (KRAS G12S) [nM] | IC50 (KRAS G12V) [nM] | IC50 (KRAS G13C) [nM] | IC50 (KRAS G13D) [nM] | IC50 (KRAS Q61H) [nM] | IC50 (KRAS WT) [nM] | IC50 (NRAS G12C) [nM] | IC50 (NRAS Q61K) [nM] | IC50 (NRAS Q61R) [nM] | IC50 (NRAS WT) [nM] | IC50 (KRAS G12C) [nM]
CO[C@H]1C[C@@H]2CC[C@@H](C)[C@@](O)(O2)C(=O)C(=O)N2CCCC[C@H]2C(=O)O[C@H]([C@H](C)C[C@@H]2CC[C@@H](OC(=O)NCCOCCOCCOCCOCCC(=O)NCCOCCOCCOCCOCCC(=O)NCCCCn3nc(-c4cnc5[nH]ccc5c4)c4c(N)ncnc43)[C@H](OC)C2)CC(=O)[C@H](C)/C=C(\C)[C@@H](O)[C@@H](OC)C(=O)[C@H](C)C[C@H](C)/C=C/C=C/C=C/1C [Example 18] | ≤ 1 | 3.16 to 31.6 | 31.6 to 1000 |  |  |  |  |  |  |  |  |  |  |  |  |  |  | 
CO[C@H]1C[C@@H]2CC[C@@H](C)[C@@](O)(O2)C(=O)C(=O)N2CCCC[C@H]2C(=O)O[C@H]([C@H](C)C[C@@H]2CC[C@@H](OC(=O)NCc3cnc(N4CCN(c5ncc(C(=O)N6CCN(c7ncc(C(=O)N8CCc9cc(Cn%10nc(-c%11cnc%12[nH]ccc%12c%11)c%11c(N)ncnc%11%10)ccc9C8)cn7)CC6)cn5)CC4)nc3)[C@H](OC)C2)CC(=O)[C@H](C)/C=C(\C)[C@@H](O)[C@@H](OC)C(=O)[C@H](C)C[C@H](C)/C=C/C=C/C=C/1C [Example 61] | ≤ 1 |  | > 1000 |  |  |  |  |  |  |  |  |  |  |  |  |  |  | 
CCn1c(-c2cccnc2[C@H](C)OC)c2c3cc(ccc31)-c1cc(O)cc(c1)C[C@H](NC(=O)[C@H](C(C)C)N(C)C(=O)CN(C)C(=O)[C@]1(C)CN1)C(=O)N1CCC[C@H](N1)C(=O)OCC(C)(C)C2 [Example 257] |  |  |  | < 5000 | 100 to 1000 | 10 to 100 | 100 to 1000 | 10 to 100 | 10 to 100 | < 10 | 10 to 100 | 10 to 100 | 10 to 100 | 10 to 100 | 100 to 1000 | 100 to 1000 | 10 to 100 | 10 to 100
CCn1c(-c2cccnc2[C@H](C)OC)c2c3cc(ccc31)-c1cc(O)cc(c1)C[C@H](NC(=O)[C@H](C(C)C)N(C)C(=O)CN(C)C(=O)[C@H]1CN1CCCOC(C)=O)C(=O)N1CCC[C@H](N1)C(=O)OCC(C)(C)C2 (some centres unmarked) [Example 266] |  |  |  | < 5000 | 100 to 1000 | < 10 | 100 to 1000 | 10 to 100 | 100 to 1000 | 10 to 100 | 100 to 1000 | 10 to 100 | 100 to 1000 | < 10 | 100 to 1000 | 100 to 1000 | 100 to 1000 | < 10
